Test results reported in patent US20220275534A1, “Peptide Library Production Method” (The University of Tokyo, priority 2018, published 2022).
Non-standard residues stand in square brackets, D forms with d. No end group written: not given here. *: point of attachment. prenyl = prenyl group added to Trp by KgpF, CC(C)=CC*

Legend:
KgpF [1] = conditions: literature finding; cited from earlier work
MetAP1 = MetAP1 (Homo sapiens, UniProt P53582); experiment: MetAP1 inhibition test of prenylated cyclic peptide (probe fluorescence); assay type: biochemical; conditions: prenylated peptide at 1 μM, 5 μM or 10 μM; cofactor Mn2+ or Co2+ 100 μM; MetAP1 1 μM; 37° C., 120 min (FIG. 13)
Description: A MetAP1 inhibition test was performed in vitro using the prenylated Met2, Met3a-L, and Met3-1 at concentrations of 1 μM, 5 μM or 10 μM in the presence of a MetAP1 cofactor Mn^2+ or Co^2+. In the test, enzymatic activity was measured by detecting probe fluorescence, that is, fluorescence emitted depending on the enzymatic activity of MetAP1.
(Conditions) • Scale: 20 μL • Cyclic peptide: 1, 5, 10 μM • MnCl2 or CoCl2: 100 μM • MetAP1 enzymatic activity probe: 1 μM • MetAP1: 1 μM • Tris (pH7.6): 25 mM • NaCl: 75 mM • Reaction: 37° C., 120 min.
After the reaction, the fluorescence intensity of the probe was measured using a plate reader.

KgpF [2] = experiment: Prenylation of artificial cyclic peptides with 160 μM KgpF at 0° C., 20 hours (Conditions 13/14 and 19/20; Examples 10, 14, 19; Tables 6 and 18); assay type: biochemical, Microcystis aeruginosa; set-up: key: 5: strong intensity; 4: medium intensity; 3: weak intensity; 2: very weak intensity; 1: no peak; N/A: not observed; conditions: Table 18; Conditions 13 and 14 (160 μM KgpF, 0° C., 20 hours); NSGGVS added to C terminal
Description: The artificial cyclic peptides Clone-M1 to M9 shown below were obtained by translation and synthesis in the artificial translation system (Conditions 13) developed by the present inventors. The peptides thus obtained were then reacted with 160 μM KgpF in the system shown in (Conditions 14) at 0° C. for 20 hours.
(Conditions 13) • FIT system: v8s/v11.0 • 19aa-Met: 0.5 mM • ClAc-D-Tyr-tRNA^fMetCUA: 90 μM • Reaction: 37° C., 60 min. • Scale: 2.5 μL scale
After the above reaction was performed, the reaction product was incubated at 25° C. for 12 minutes.
Then, a cyclization reaction was performed under the following conditions. • Translated mixture amount: 2.5 μL (mixture obtained by the above reaction) • EDTA: 18 mM • Reaction: 42° C., 60 min. • Scale: 2.75 μL scale
(Conditions 14) • Translated mixture amount: 2.75 μL (mixture obtained under (Conditions 13)) • KOH: 6.0 mM • Mg(OAc)2: 9.0 mM • Tris-HCl (pH 8.3) 15 mM • KgpF: 160 μM • DMAPP: 2 mM • Reaction: 0° C., 20 hours
The artificial cyclic peptides shown below were obtained by translation and synthesis in the artificial translation system (Conditions 19) developed by the present inventors. The peptides thus obtained were then reacted with 160 μM KgpF in the system shown in (Conditions 20) at 0° C. for 20 hours.
(Conditions 19) • FIT system: v8s/11.0 • 19aa-Met: 0.5 mM • ClAc-D-Tyr-tRNA^fMetCUA: 90 μM • Reaction: 37° C., 60 min. • Scale: 2.5 μL scale
(Conditions 20) • Translated mixture amount: 2.75 μL (mixture obtained under (Conditions 19)) • KOH: 6.0 mM • Mg(OAc)2: 9.0 mM • Tris-HCl (pH 8.3): 15 mM • KgpF: 160 μM • DMAPP: 2 mM • Reaction: 0° C., 20 hours
Then, the compound library was provided for a step of screening cyclic peptides having interaction with an enzyme MetAP1 (Human) as in the scheme shown in FIG. 8. It has been confirmed that with regards to some of the peptides shown in FIG. 10, peptides having these sequences are modified by prenylation as shown in Table 18 by bringing them into contact with KgpF under conditions shown in (Conditions 13) and (Conditions 14).
Target sequence in this assay (as listed by the source): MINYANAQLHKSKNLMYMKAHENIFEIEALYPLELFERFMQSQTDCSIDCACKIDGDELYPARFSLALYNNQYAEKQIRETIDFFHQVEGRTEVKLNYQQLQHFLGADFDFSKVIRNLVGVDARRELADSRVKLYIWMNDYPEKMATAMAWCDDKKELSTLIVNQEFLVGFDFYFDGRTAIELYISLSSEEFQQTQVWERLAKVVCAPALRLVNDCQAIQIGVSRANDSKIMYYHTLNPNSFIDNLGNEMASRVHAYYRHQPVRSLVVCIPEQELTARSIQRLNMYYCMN

Compound	prenylation by KgpF (KgpF [1])	inhibition of the enzymatic activity of MetAP1 (MetAP1)	Peak intensity, The number of prenyl groups added 0 (KgpF [2])	Peak intensity, The number of prenyl groups added 1 (KgpF [2])
Cyclic [WLNGDNNWSTP]: main-chain cyclized peptide of 11 residues formed from precursor peptide KgpE; natural substrate giving Kawaguchipeptin A (SEQ ID NO: 386) (main-chain cyclized)	prenylates two Trp residues	–	–	–
O=C(N[C@@H](Cc1c[nH]c2ccccc12)C(=O)O)OCC1c2ccccc2-c2ccccc21 [Fmoc-Trp-OH]	low efficiency	–	–	–
Met3a-L: cyclic peptide SEQ ID NO: 362 from MetAP1 screening, Fmoc solid-phase synthesis, prenylated with KgpF (YKRKAWLC; also: cyclic, ring not given here, prenylated with KgpF)	–	inhibit the enzymatic activity of MetAP1	–	–
Met3: prenylated cyclic peptide identified by screening with MetAP1 as a target (Ac-[dY]KRKAW(prenyl)ICQTAVYCNSGGVS; thioether (positions not given here); not fully specified (C-terminus))	–	inhibit the enzymatic activity of MetAP1	2	5
